# Measurements: patent US20190209548A1, “LINKED DIARYL COMPOUNDS WITH ANTICANCER PROPERTIES AND METHODS OF USING THE SAME” (University of Maryland, College Park, priority 2014, published 2019)
# Where two headings read alike, the source gives them in different places.
# Legend:
# PC-3 = assay: WST-1 IC50 determination, PC-3; assay type: cell-based, human; conditions: 72 hours, WST-1; for IC50: read-out: Anticancer activity IC50 ± SD, PC-3
# Description: (§1) Cell lines and culturing. The following human cell lines were purchased from ATCC (ATCC, Manassas, Va.): prostate cancer cells (PC-3), triple negative breast cancer cells (MDA-MB-231), ovarian cancer cells (OVCAR-3), normal bone marrow (NBM) and normal fibroblast cells (MCR5A). MDA-MB-231 cells were grown at 37° C. with 5% CO2 atmosphere with DMEM (Life technologies, Carlsbad, Calif.) supplemented with heat-inactivated 10% (V/V) fetal bovine serum. OVCAR-3 and PC-3 cells were grown at 37° C. with 5% CO2 atmosphere with RPMI (Life technologies, Carlsbad, Calif.) supplemented with heat-inactivated 10% (V/V) fetal bovine serum. Cell lines were grown and maintained according to ATCC recommendations.
# (§2) IC50 determination. Cell lines were seeded into 96-well plates the afternoon prior to treatment. Cell seeding number was determined by growing cells in log phase growth during drug treatment. Approximately 18 hours later, compounds were semi-serially diluted in dimethyl sulfoxide (DMSO) and then growth medium, and added to cells. Plates were incubated for 72 hours prior to addition of WST-1 (Promega, Madison Wis.). Plates were read after 4 additional hours of incubation at 37° C. using a Bio-Tek Synergy HT plate reader (Bio-Tek, Winooski, Vt.). Data was analyzed, graphed and IC50s generated using GraphPad Prism Software (Graphpad, La Jolla, Calif.).
# (§3) IC50 determination: For the determination of IC50 for the azolamide class, the same protocol as described previously was followed.
# MDA-MB-231 = assay: WST-1 IC50 determination, MDA-MB-231; assay type: cell-based, human; conditions: 72 hours, WST-1; for IC50: read-out: Anticancer activity IC50 ± SD, MDA-MB-231
# Description: as §1, §2, §3
# OVCAR-3 = assay: WST-1 IC50 determination, OVCAR-3; assay type: cell-based, human; conditions: 72 hours, WST-1; for IC50: read-out: Anticancer activity IC50 ± SD, OVCAR-3
# Description: as §1, §2, §3
# c-kit2 = assay: FRET melting assay, c-kit2; assay type: binding; conditions: dual-labeled DNA 0.2 μM, DMZ analogues 1 μM, potassium cacodylate 60 mM pH 7.2
# Description: (§4) Fluorescence resonance energy transfer (FRET) assay to determine Tm in absence and presence of ligands. Dual-labelled DNA was diluted from stock (50 μM) to 400 nM in 60 mM potassium cacodylate buffer (pH 7.2) and then annealed by heating at 85° C. for 10 min followed by cooling to room temperature in the heating block. Compounds were diluted from stock (20 mM in DMSO) to 2 μM in 60 mM cacodylate buffer (pH 7.2). 25 μL annealed DNA was added to 96-well plate followed by 25 μL diluted compounds. The sequences of labelled oligonucleotides were as follows: F21T 21-mer (5′-FAM-GGGTTAGGGTTAGGGTTAGGG-TAMRA-3′) (SEQ ID NO:11), c-kit2 26-mer (5′-FAM-CCCGGGCGGGCGCGAGGGAGGGGAGG-TAMRA-3′) (SEQ ID NO:12), k-RAS21R 21-mer (5′-FAM-AGGGCGGTGTGGGAAGAGGGA-TAMRA-3′) (SEQ ID NO:13), c-MYC 22-mer (5′-FAM-TGAGGGTGGGTAGGGTGGGTAA-TAMRA-3′) (SEQ ID NO:14) and duplex 26-mer (5′-FAM-TATAGCTATATTTTTTTATAGCTATA-TAMRA-3′) (SEQ ID NO: 15). Measurements were made in triplicate by using a LightCycler 480 System RT-PCR machine (Roche) and average values were reported. Fluorescence readings were made with excitation at 450-495 nm and detection at 515-545 nm, taken at intervals of 1.2° C./min in the range 25° C. to 95° C.
# F21T = assay: FRET melting assay, F21T; assay type: binding; conditions: dual-labeled DNA 0.2 μM, DMZ analogues 1 μM, potassium cacodylate 60 mM pH 7.2
# Description: as §4
# k-RAS21R = assay: FRET melting assay, k-RAS21R; assay type: binding; conditions: dual-labeled DNA 0.2 μM, DMZ analogues 1 μM, potassium cacodylate 60 mM pH 7.2
# Description: as §4
# duplex = assay: FRET melting assay, duplex DNA; assay type: binding; conditions: dual-labeled DNA 0.2 μM, DMZ analogues 1 μM, potassium cacodylate 60 mM pH 7.2
# Description: as §4
# c-MYC = assay: FRET melting assay, c-MYC; assay type: binding; conditions: dual-labeled DNA 0.2 μM, DMZ analogues 1 μM, potassium cacodylate 60 mM pH 7.2
# Description: as §4
# [1] = Human liver microsome stability; assay type: in vitro ADME
# From the text: An established method to determine the pharmacokinetic clearance of a compound in humans is to measure the degradation of the compound in the presence of human liver microsomes. The following is the half-lives of the four compounds in human liver microsomes: […]
"half-life ([1]; human, liver microsomes, read-out: NADPH-dependent T½) [h]","half-life ([1]; human, liver microsomes, read-out: NADPH-independent T½) [h]",SMILES,"Anticancer activity IC50 ± SD, PC-3 (PC-3)","Anticancer activity IC50 ± SD, MDA-MB-231 (MDA-MB-231)","Anticancer activity IC50 ± SD, OVCAR-3 (OVCAR-3)",ΔTm c-kit2 (c-kit2) [°C],ΔTm F21T (F21T) [°C],ΔTm k-RAS21R (k-RAS21R) [°C],ΔTm duplex (duplex),ΔTm c-MYC (c-MYC) [°C],IC50 (PC-3) [µM],IC50 (MDA-MB-231) [µM],IC50 (OVCAR-3) [µM],NADPH-independent T½ ([1]; human liver microsomes) [h],"half-life ([1]; human liver microsomes, read-out: NADPH-dependent T½) [h]"
–,–,"N=C(N)c1ccc(N)cc1 [4-aminobenzamidine, reference compound]",NE (NE means not effective. Cell viability was the same or greater than 75% of the DMSO control at 20 μM compound concentration.),NE (NE means not effective. Cell viability was the same or greater than 75% of the DMSO control at 20 μM compound concentration.),NE (NE means not effective. Cell viability was the same or greater than 75% of the DMSO control at 20 μM compound concentration.),–,–,–,–,–,–,–,–,–,–
–,–,N#Cc1ccc(NN=Nc2ccc(C(=N)N)cc2)cc1 [DMZ2],NE (NE means not effective. Cell viability was the same or greater than 75% of the DMSO control at 20 μM compound concentration.),NE (NE means not effective. Cell viability was the same or greater than 75% of the DMSO control at 20 μM compound concentration.),NE (NE means not effective. Cell viability was the same or greater than 75% of the DMSO control at 20 μM compound concentration.),5.30 ± 0.26,4.20 ± 0.00,7.49 ± 0.00,NE (NE means not effective binding (ΔTm < 1° C.)),8.06 ± 0.68,–,–,–,–,–
–,–,C#Cc1ccc(NN=Nc2ccc(C(=N)N)cc2)cc1 [DMZ3],–,–,–,5.30 ± 0.26,4.57 ± 0.26,5.66 ± 0.51,NE (NE means not effective binding (ΔTm < 1° C.)),7.13 ± 0.45,22.5 ± 8.8,30.2 ± 1.8,11.8 ± 1.7,–,–
–,–,N#Cc1cccc(NN=Nc2ccc(C(=N)N)cc2)c1 [DMZ4],NE (NE means not effective. Cell viability was the same or greater than 75% of the DMSO control at 20 μM compound concentration.),NE (NE means not effective. Cell viability was the same or greater than 75% of the DMSO control at 20 μM compound concentration.),NE (NE means not effective. Cell viability was the same or greater than 75% of the DMSO control at 20 μM compound concentration.),6.22 ± 0.26,4.57 ± 0.26,2.00 ± 0.45,NE (NE means not effective binding (ΔTm < 1° C.)),6.94 ± 0.26,–,–,–,–,–
–,–,C#Cc1cccc(NN=Nc2ccc(C(=N)N)cc2)c1 [DMZ5],–,–,–,5.48 ± 0.45,4.39 ± 0.26,6.39 ± 0.89,NE (NE means not effective binding (ΔTm < 1° C.)),7.51 ± 0.26,18 ± 5.7,20.5 ± 4.2,16.8 ± 3.1,–,–
–,–,N=C(N)c1ccc(N=NNc2cccc(-c3ccccc3)c2)cc1 [DMZ6],NE (NE means not effective. Cell viability was the same or greater than 75% of the DMSO control at 20 μM compound concentration.),NE (NE means not effective. Cell viability was the same or greater than 75% of the DMSO control at 20 μM compound concentration.),NE (NE means not effective. Cell viability was the same or greater than 75% of the DMSO control at 20 μM compound concentration.),5.48 ± 0.45,4.57 ± 0.26,4.20 ± 0.90,NE (NE means not effective binding (ΔTm < 1° C.)),7.49 ± 0.26,–,–,–,–,–
–,–,N=C(N)c1ccc(N=NNc2cccc(C#Cc3ccccc3)c2)cc1 [DMZ7],–,–,–,6.40 ± 0.26,4.20 ± 0.00,2.56 ± 0.00,NE (NE means not effective binding (ΔTm < 1° C.)),7.33 ± 0.26,5.8 ± 0.2,9.5 ± 1.3,6.5 ± 2.1,–,–
–,–,N=C(N)c1ccc(N=NNc2cccc(C#Cc3ccccn3)c2)cc1 [DMZ8],–,–,–,8.04 ± 0.26,4.75 ± 0.00,14.62 ± 0.45,NE (NE means not effective binding (ΔTm < 1° C.)),9.32 ± 0.00,10.4 ± 1.4,14.4 ± 0.9,10.7 ± 1.5,–,–
–,–,COc1ccc(C#Cc2cccc(NN=Nc3ccc(C(=N)N)cc3)c2)cc1 [DMZ10],–,–,–,5.48 ± 0.00,4.39 ± 0.26,1.65 ± 0.26,NE (NE means not effective binding (ΔTm < 1° C.)),8.06 ± 0.26,5 ± 0.9,5.5,5.2 ± 0.4,–,–
–,–,C#Cc1ccccc1NN=Nc1ccc(C(=N)N)cc1 [DMZ11],–,–,–,7.68 ± 0.00,4.20 ± 0.00,2.19 ± 0.26,NE (NE means not effective binding (ΔTm < 1° C.)),8.77 ± 0.00,> 50,23.2,> 25,–,–
–,–,N=C(N)c1ccc(N=NNc2ccccc2C#Cc2ccccc2)cc1 [DMZ12],–,–,–,5.12 ± 0.26,4.20 ± 0.00,2.19 ± 0.26,NE (NE means not effective binding (ΔTm < 1° C.)),7.15 ± 0.00,5.3 ± 0.2,5.1 ± 0.4,8.1 ± 0.5,–,–
–,–,N=C(N)c1ccc(N=NNc2ccncc2)cc1 [DMZ14],NE (NE means not effective. Cell viability was the same or greater than 75% of the DMSO control at 20 μM compound concentration.),NE (NE means not effective. Cell viability was the same or greater than 75% of the DMSO control at 20 μM compound concentration.),NE (NE means not effective. Cell viability was the same or greater than 75% of the DMSO control at 20 μM compound concentration.),6.58 ± 0.78,4.20 ± 0.00,2.19 ± 0.26,NE (NE means not effective binding (ΔTm < 1° C.)),6.97 ± 0.26,–,–,–,–,–
–,–,CC(C)NC(=N)c1ccc(/N=N/c2c(N)ncc3ccc(Br)cc23)cc1 [HSY430-5],–,–,–,–,–,–,–,–,–,–,–,>4,> 4
2.57,2.38,CCCCNC(=N)c1ccc(/N=N/c2c(N)ncc3ccc(Br)cc23)cc1 [HSY430-6],–,–,–,–,–,–,–,–,–,–,–,–,–
–,–,"Nc1cccc(C#Cc2ccc(F)cc2)c1 [compound 15, reference compound]",NE (NE means not effective. Cell viability was the same or greater than 75% of the DMSO control at 20 μM compound concentration.),NE (NE means not effective. Cell viability was the same or greater than 75% of the DMSO control at 20 μM compound concentration.),NE (NE means not effective. Cell viability was the same or greater than 75% of the DMSO control at 20 μM compound concentration.),–,–,–,–,–,–,–,–,–,–
